Activity calls are given as the source filed them.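 How the source made its calls: active means parasite count per well reduced by over 3 SD from the mean, with host cell number above 80% of untreated; inactive means the rest.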
These compounds were tested on L. donovani amastigotes in THP-1 macrophages, DAPI imaging, 72 h (assay: L. donovani intracellular amastigote growth inhibitors, imaging, THP-1 host macrophages, single concentration (AID 977614);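 further: signal is the parasite per host cell ratio from DAPI stained kinetoplasts and nuclei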).
`CCN(C[C@@H]1N[C@@H](CO)[C@H]1c1ccccc1)C(=O)c1ccncc1` was tested, and the AC50 was > 10 µM (inactive). `O=C(CC(F)(F)F)N1C[C@H]2[C@@H](c3ccccc31)[C@@H](CO)N2CC1CCOCC1` was tested, and the AC50 was > 10 µM (inactive). With `C[C@@H]1CN([C@@H](C)CO)C(=O)CCCn2nncc2CO[C@@H]1CN(C)S(=O)(=O)c1ccc(Oc2ccccc2)nc1` the AC50 was > 10 µM (inactive). For `Cc1noc(C)c1NC(=O)N(C)C[C@@H]1OCc2cn(nn2)CCCC(=O)N([C@H](C)CO)C[C@H]1C`, the AC50 was > 10 µM (inactive). In the case of `C[C@@H]1CN([C@@H](C)CO)C(=O)CCCn2nncc2CO[C@@H]1CN(C)C(=O)Nc1ccccc1C(F)(F)F`, the AC50 is reported as > 10 µM (inactive). For `COc1ccccc1CN1[C@@H]2CN(C(=O)c3cccnc3)c3ccccc3[C@@H]2[C@@H]1CO`, the AC50 was > 10 µM (inactive). In the case of `C[C@@H]1CN([C@H](C)CO)C(=O)CCCn2nncc2CO[C@@H]1CN(C)Cc1cccc(C(F)(F)F)c1`, the AC50 is reported as > 10 µM (inactive). `O=C(c1ccccc1F)N1C[C@@H]2[C@H](c3ccccc31)[C@@H](CO)N2Cc1ccc2c(c1)OCO2` was tested, and the AC50 was > 10 µM (inactive). `COc1cccc(NC(=O)N2[C@H](CO)[C@H](c3ccccc3)[C@H]2CNCC(C)C)c1` was tested, and the AC50 was > 10 µM (inactive). `COCC(=O)NC[C@@H]1[C@@H](c2ccccc2)[C@H](CO)N1C(=O)c1ccccc1` was tested, and the AC50 was > 10 µM (inactive). With `CCCC#Cc1ccc([C@H]2[C@@H](CO)N(C(=O)NC(C)C)[C@H]2CNC(C)=O)cc1` the AC50 was > 10 µM (inactive). In the case of `CN(C)CC(=O)N1C[C@H]2[C@@H](c3ccccc31)[C@@H](CO)N2C(=O)c1ccccn1`, the AC50 is reported as > 10 µM (inactive). In the case of `CN1[C@H](CO)[C@@H]2c3ccccc3N(C(=O)Nc3cc(F)ccc3F)C[C@@H]21`, the AC50 is reported as > 10 µM (inactive). In the case of `COCCNC[C@H]1[C@@H](c2ccccc2)[C@@H](CO)N1c1nc(C)c(C)s1`, the AC50 is reported as > 10 µM (inactive). In the case of `CNC[C@H]1OCc2cnnn2CCCC(=O)N([C@@H](C)CO)C[C@@H]1C`, the AC50 is reported as > 10 µM (inactive). In the case of `CN(C[C@@H]1[C@@H](c2ccccc2)[C@H](CO)N1Cc1ccccn1)S(C)(=O)=O`, the AC50 is reported as > 10 µM (inactive). With `CNC[C@H]1OCc2cn(nn2)CCCC(=O)N([C@@H](C)CO)C[C@@H]1C` the AC50 was > 10 µM (inactive). For `CCC(=O)N1[C@@H](CO)[C@@H]2c3ccccc3N(C(=O)c3cnccn3)C[C@@H]21`, the AC50 was > 10 µM (inactive). `C[C@@H]1CN([C@@H](C)CO)C(=O)CCCn2cc(nn2)CO[C@@H]1CN(C)S(=O)(=O)c1cn(C)cn1` was tested, and the AC50 was > 10 µM (inactive). For `CCNC[C@@H]1[C@H](c2ccccc2)[C@@H](CO)N1C(=O)Cc1ccccn1`, the AC50 was > 10 µM (inactive). `C/C=C/c1ccc([C@@H]2[C@@H](CN(CC)C(C)=O)N(Cc3cccnc3)[C@H]2CO)cc1` was tested, and the AC50 was > 10 µM (inactive). With `O=C(NC[C@H]1[C@H](c2ccccc2)[C@@H](CO)N1C(=O)C1CCC1)NC1CCCC1` the AC50 was > 10 µM (inactive). With `C[C@@H]1CN([C@@H](C)CO)C(=O)CCCn2nncc2CO[C@H]1CN(C)C(=O)Nc1ccc2c(c1)OCCO2` the AC50 was > 10 µM (inactive). For `COCC(=O)N(C)C[C@@H]1[C@@H](c2ccccc2)[C@H](CO)N1C(=O)Cc1ccncc1`, the AC50 was > 10 µM (inactive). With `C[C@H](CO)N1C[C@H](C)[C@@H](CN(C)S(=O)(=O)c2ccccc2C#N)OCc2cnnn2CCCC1=O` the AC50 was > 10 µM (inactive). In the case of `O=C(NC[C@@H]1[C@H](c2ccccc2)[C@@H](CO)N1C(=O)C1CCC1)NC1CCCC1`, the AC50 is reported as > 10 µM (inactive). With `COc1ccc(NC(=O)N2C[C@@H]3[C@H](c4ccccc42)[C@@H](CO)N3Cc2ccccn2)cc1` the AC50 was > 10 µM (inactive). With `C[C@H](CO)N1C[C@H](C)[C@@H](CN(C)C(=O)Oc2cccc3ccccc23)OCc2cnnn2CCCC1=O` the AC50 was > 10 µM (inactive). In the case of `C[C@@H]1CN([C@@H](C)CO)C(=O)CCCn2nncc2CO[C@H]1CN(C)S(=O)(=O)c1cn(C)cn1`, the AC50 is reported as > 10 µM (inactive). With `COc1ccc(CN2[C@@H](CO)[C@@H]3c4ccccc4N(C(=O)NC(C)C)C[C@@H]32)cc1` the AC50 was > 10 µM (inactive). For `Cc1noc(C)c1NC(=O)N(C)C[C@H]1OCc2cn(nn2)CCCC(=O)N([C@@H](C)CO)C[C@@H]1C`, the AC50 was > 10 µM (inactive). For `CCC(=O)N1[C@H](CO)[C@H](c2ccc(-c3cncnc3)cc2)[C@@H]1CN(C)C(C)=O`, the AC50 was > 10 µM (inactive). With `COCC(=O)N1[C@H](CO)[C@H]2c3ccccc3N(C)C[C@H]21` the AC50 was > 10 µM (inactive). `O=C(NC[C@H]1[C@H](c2ccccc2)[C@@H](CO)N1C(=O)Cc1ccncc1)C1CCC1` was tested, and the AC50 was > 10 µM (inactive). In the case of `C[C@@H]1CN([C@H](C)CO)C(=O)CCCn2nncc2CO[C@H]1CN(C)S(=O)(=O)c1ccccc1C#N`, the AC50 is reported as > 10 µM (inactive). With `Cc1cccc(S(=O)(=O)N2C[C@@H]3[C@H](c4ccccc42)[C@@H](CO)N3CC2CCCC2)c1` the AC50 was > 10 µM (inactive). With `CCN(C[C@@H]1[C@@H](c2ccccc2)[C@@H](CO)N1C(C)=O)C(=O)NC1CCCC1` the AC50 was > 10 µM (inactive). `Cc1noc(C)c1NC(=O)N(C)C[C@@H]1OCc2cnnn2CCCC(=O)N([C@@H](C)CO)C[C@H]1C` was tested, and the AC50 was > 10 µM (inactive). With `O=C(NC[C@H]1[C@@H](c2ccccc2)[C@H](CO)N1C(=O)C1CCC1)NC1CCCC1` the AC50 was > 10 µM (inactive).

Reference: PubChem BioAssay AID977614 (Broad Institute, 2014)
